Results published in patent publication US20070116836A1, “High-Potency Sweetener Composition for Treatment and/or Prevention of Osteoporosis and Compositions Sweetened Therewith” (THE COCA-COLA COMPANY, priority 2005, published 2007).

How the values were obtained:
[1] = Sensory evaluation of sweetness linger by expert panel, Example Set G (citric acid/potassium citrate base); format: in vivo; design: key: 0=no sweetness linger; 1=very slight sweetness linger; 2=slight sweetness linger; 3=moderate sweetness linger; 4=moderately high sweetness linger; 5=high sweetness linger; details: scale 0-5; 400 ppm REBA in citric acid/potassium citrate composition equivalent to diet lemon-lime beverage, additive per example; sugar control 8 g in 100 ml citrate buffer
Experimental: Sensory evaluation of the samples prepared in Example Set G was carried out under the following protocol, similar to that described hereinabove. In this test protocol, none of the samples were swallowed. All samples were expectorated and the mouth was rinsed with water after the tasting. Immediately upon sensing maximal sweetness, the sample was expectorated, the mouth was rinsed with water and the rate of sweetness decay (“Sweetness Linger”) was measured, where attention was focused on the sweetness 3-4 min after the water rinse. After sample tasting was complete, a salty oyster cracker was chewed followed by a water rinse, and at least 5 minutes followed before tasting the next sample. […]
The effects of formulation change on the sweetness linger of 400 ppm REBA (equivalent to 8 g sucrose) in a citric acid/potassium citrate composition equivalent to that in a diet lemon-lime beverage were evaluated. The sweetness linger rating of this solution was determined to be 5.
8 g of sugar was dissolved in 100 ml of citrate buffer. The sweetness linger rating of this control sample was determined to be 0.

[2] = Sensory evaluation of sweetness linger by expert panel, Example Set H (phosphoric acid base); format: in vivo; design: key: 0=no sweetness linger; 1=very slight sweetness linger; 2=slight sweetness linger; 3=moderate sweetness linger; 4=moderately high sweetness linger; 5=high sweetness linger; details: scale 0-5; 500 ppm REBA (H41: 360 ppm) in carbon-treated water, phosphoric acid (75%) to pH 2.4-2.5, additive per example; sugar control 10 g in 100 ml
[3] = Rate of dissolution in H2O at 25° C. of rebaudioside A polymorph and amorphous forms; format: physicochemical; details: grade in words

Rate of dissolution in H2O at 25° C. [3]	Molecule	Sweetness linger [1]	Sweetness linger [2]
Very low	rebaudioside A [Form 1]	–	–
High	rebaudioside A [Form 3]	–	–

Second part, the molecule before the results:

Molecule	Rate of dissolution in H2O at 25° C. [3]	Sweetness linger [1]	Sweetness linger [2]
OC[C@H]1O[C@@](CO)(O[C@H]2O[C@H](CO)[C@@H](O)[C@H](O)[C@H]2O)[C@@H](O)[C@@H]1O [sugar, sucrose]	–	0	0
rebaudioside A	–	5	5
rebaudioside A [Form 2]	Intermediate	–	–
rebaudioside A [Form 4]	High	–	–
